Reference: PubChem BioAssay (NCI)
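48-hour exposure; five concentrations; linearly interpolated endpoints. TGI: concentration producing complete growth inhibition.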

What was measured:
Assay in all cases: NCI anticancer screen, dose series, 48 h
786-0 renal = tested on: 786-0 renal
A498 renal = tested on: A498 renal
A549 NSCLC = tested on: A549 NSCLC
ACHN renal = tested on: ACHN renal
BT-549 breast = tested on: BT-549 breast
CAKI-1 renal = tested on: CAKI-1 renal
CCRF-CEM leukemia = tested on: CCRF-CEM leukemia
COLO 205 colon = tested on: COLO 205 colon
DU-145 prostate = tested on: DU-145 prostate
EKVX NSCLC = tested on: EKVX NSCLC
HCC-2998 colon = tested on: HCC-2998 colon
HCT-116 colon = tested on: HCT-116 colon
HCT-15 colon = tested on: HCT-15 colon
HL-60(TB) leukemia = tested on: HL-60(TB) leukemia
HOP-62 NSCLC = tested on: HOP-62 NSCLC
HOP-92 NSCLC = tested on: HOP-92 NSCLC
HS 578T breast = tested on: HS 578T breast
HT29 colon = tested on: HT29 colon
IGROV1 ovarian = tested on: IGROV1 ovarian
K-562 leukemia = tested on: K-562 leukemia
KM12 colon = tested on: KM12 colon
LOX IMVI melanoma = tested on: LOX IMVI melanoma
M14 melanoma = tested on: M14 melanoma
MALME-3M melanoma = tested on: MALME-3M melanoma
MCF7 breast = tested on: MCF7 breast
MDA-MB-231 breast = tested on: MDA-MB-231 breast
MDA-MB-435 = tested on: MDA-MB-435
MOLT-4 leukemia = tested on: MOLT-4 leukemia
NCI-H226 lung = tested on: NCI-H226 lung
NCI-H23 lung = tested on: NCI-H23 lung
NCI-H460 lung = tested on: NCI-H460 lung
NCI-H522 lung = tested on: NCI-H522 lung
NCI/ADR-RES ovarian = tested on: NCI/ADR-RES ovarian
OVCAR-3 ovarian = tested on: OVCAR-3 ovarian
OVCAR-4 ovarian = tested on: OVCAR-4 ovarian
OVCAR-5 ovarian = tested on: OVCAR-5 ovarian
OVCAR-8 ovarian = tested on: OVCAR-8 ovarian
PC-3 prostate = tested on: PC-3 prostate
RPMI-8226 leukemia = tested on: RPMI-8226 leukemia
SF-268 CNS = tested on: SF-268 CNS
SF-295 CNS = tested on: SF-295 CNS
SF-539 CNS = tested on: SF-539 CNS
SK-MEL-2 melanoma = tested on: SK-MEL-2 melanoma
SK-MEL-28 melanoma = tested on: SK-MEL-28 melanoma
SK-MEL-5 melanoma = tested on: SK-MEL-5 melanoma
SK-OV-3 ovarian = tested on: SK-OV-3 ovarian
SN12C renal = tested on: SN12C renal
SNB-19 CNS = tested on: SNB-19 CNS
SR leukemia = tested on: SR leukemia
SW-620 colon = tested on: SW-620 colon
T-47D breast = tested on: T-47D breast
TK-10 renal = tested on: TK-10 renal
U251 CNS = tested on: U251 CNS
UACC-257 melanoma = tested on: UACC-257 melanoma
UACC-62 melanoma = tested on: UACC-62 melanoma
UO-31 renal = tested on: UO-31 renal

O=C1CSC(c2cccc([N+](=O)[O-])c2)N1c1ccc(-c2ccc(-n3c(-c4ccccc4)nc4ccccc4c3=O)cc2)cc1 (stereo unspecified)
TGI (786-0 renal): > 100 µM | TGI (A498 renal): > 100 µM | TGI (A549 NSCLC): > 100 µM | TGI (ACHN renal): > 100 µM | TGI (BT-549 breast): 98.3 µM | TGI (CAKI-1 renal): > 100 µM | TGI (CCRF-CEM leukemia): 91.9 µM | TGI (COLO 205 colon): > 100 µM | TGI (DU-145 prostate): > 100 µM | TGI (EKVX NSCLC): > 100 µM | TGI (HCC-2998 colon): > 100 µM | TGI (HCT-116 colon): > 100 µM | TGI (HCT-15 colon): > 100 µM | TGI (HL-60(TB) leukemia): > 100 µM | TGI (HOP-62 NSCLC): > 100 µM | TGI (HOP-92 NSCLC): > 100 µM | TGI (HS 578T breast): > 100 µM | TGI (HT29 colon): > 100 µM | TGI (IGROV1 ovarian): > 100 µM | TGI (K-562 leukemia): > 100 µM | TGI (KM12 colon): 81 µM | TGI (LOX IMVI melanoma): > 100 µM | TGI (M14 melanoma): > 100 µM | TGI (MALME-3M melanoma): > 100 µM | TGI (MCF7 breast): 92.6 µM | TGI (MDA-MB-231 breast): > 100 µM | TGI (MDA-MB-435): > 100 µM | TGI (MOLT-4 leukemia): > 100 µM | TGI (NCI-H226 lung): > 100 µM | TGI (NCI-H23 lung): > 100 µM | TGI (NCI-H460 lung): > 100 µM | TGI (NCI-H522 lung): > 100 µM | TGI (NCI/ADR-RES ovarian): > 100 µM | TGI (OVCAR-3 ovarian): > 100 µM | TGI (OVCAR-4 ovarian): > 100 µM | TGI (OVCAR-5 ovarian): > 100 µM | TGI (OVCAR-8 ovarian): > 100 µM | TGI (PC-3 prostate): > 100 µM | TGI (RPMI-8226 leukemia): > 100 µM | TGI (SF-268 CNS): > 100 µM | TGI (SF-295 CNS): > 100 µM | TGI (SF-539 CNS): > 100 µM | TGI (SK-MEL-2 melanoma): > 100 µM | TGI (SK-MEL-28 melanoma): > 100 µM | TGI (SK-MEL-5 melanoma): > 100 µM | TGI (SK-OV-3 ovarian): > 100 µM | TGI (SN12C renal): > 100 µM | TGI (SNB-19 CNS): > 100 µM | TGI (SR leukemia): > 100 µM | TGI (SW-620 colon): > 100 µM | TGI (T-47D breast): > 100 µM | TGI (TK-10 renal): > 100 µM | TGI (U251 CNS): > 100 µM | TGI (UACC-257 melanoma): > 100 µM | TGI (UACC-62 melanoma): > 100 µM | TGI (UO-31 renal): > 100 µM
